Test results reported in article PMC8509831 (International Journal of Molecular Sciences, 2021).
Read-outs that look alike come from different tables or passages of the source. Marks after values point to notes of the source that are not given here. Values belong to the compound of their own block, whether it stands above or below them.

Key:
LOX-5 = assay: 5-LOX enzyme inhibitory assay (polarographic, Clark oxygen electrode); type: biochemical, potato; conditions: mean ± SD, n = 3
Experimental: The IC50 was determined for the studied compounds and reference standards. […] Furthermore, 5-LOX enzyme was extracted from potato tubers as described previously. […] The enzyme activity was expressed as moles of oxygen consumed per min/mg protein, as 5-LOX adds oxygen to the substrate, implying that the rate of decrease of oxygen in the reaction mixture was intrinsic to the measurement of enzyme activity. The results were expressed as IC50 (μg/mL) for the sample and reference compounds in triplicate.

COX-1 = biological target: T1, COX-1 (Ovis aries, UniProt P05979); assay: COX-1 enzyme inhibitory assay (COX inhibitor screening kit); type: biochemical
T1 construct: purchased Cayman Chemicals 560131
T1 sequence (P05979 25-600): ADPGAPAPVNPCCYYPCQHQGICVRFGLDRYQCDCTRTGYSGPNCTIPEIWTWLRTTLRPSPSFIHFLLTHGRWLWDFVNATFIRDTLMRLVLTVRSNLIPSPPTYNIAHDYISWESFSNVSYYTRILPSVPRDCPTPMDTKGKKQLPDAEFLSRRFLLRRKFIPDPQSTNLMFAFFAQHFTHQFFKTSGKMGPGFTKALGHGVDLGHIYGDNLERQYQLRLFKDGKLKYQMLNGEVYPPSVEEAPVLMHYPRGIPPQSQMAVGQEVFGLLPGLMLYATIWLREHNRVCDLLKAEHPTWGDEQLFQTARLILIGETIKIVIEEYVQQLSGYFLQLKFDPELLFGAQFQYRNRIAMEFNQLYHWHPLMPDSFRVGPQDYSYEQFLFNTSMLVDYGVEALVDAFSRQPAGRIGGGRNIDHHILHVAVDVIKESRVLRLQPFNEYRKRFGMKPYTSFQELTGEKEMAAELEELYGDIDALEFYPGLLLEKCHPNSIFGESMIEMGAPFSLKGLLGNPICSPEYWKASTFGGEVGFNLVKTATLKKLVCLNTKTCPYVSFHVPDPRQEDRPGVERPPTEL

COX-2 = biological target: T2, COX-2 (Homo sapiens, UniProt P35354); assay: COX-2 enzyme inhibitory assay (COX inhibitor screening kit); type: biochemical; conditions: mean ± SD, n = 3; read-out: Enzyme Inhibitory Effect IC50 COX-2 (converted)
T2 construct: purchased Cayman Chemicals 560131
T2 sequence (P35354 18-604): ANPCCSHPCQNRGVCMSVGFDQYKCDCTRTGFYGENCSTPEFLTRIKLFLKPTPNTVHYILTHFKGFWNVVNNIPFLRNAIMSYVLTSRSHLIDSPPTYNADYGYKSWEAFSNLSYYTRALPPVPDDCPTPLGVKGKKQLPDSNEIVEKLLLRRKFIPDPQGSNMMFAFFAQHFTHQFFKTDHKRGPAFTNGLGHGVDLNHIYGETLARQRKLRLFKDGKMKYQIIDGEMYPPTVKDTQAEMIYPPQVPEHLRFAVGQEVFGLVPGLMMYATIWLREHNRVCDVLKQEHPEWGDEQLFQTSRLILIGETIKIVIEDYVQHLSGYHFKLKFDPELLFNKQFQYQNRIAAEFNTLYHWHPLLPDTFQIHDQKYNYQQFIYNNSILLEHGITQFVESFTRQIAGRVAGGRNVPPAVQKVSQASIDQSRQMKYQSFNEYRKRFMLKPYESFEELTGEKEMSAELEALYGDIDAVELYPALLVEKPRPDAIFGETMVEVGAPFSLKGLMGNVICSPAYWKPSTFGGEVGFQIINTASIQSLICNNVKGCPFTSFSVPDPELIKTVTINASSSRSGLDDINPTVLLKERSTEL

caspase-9 = assay: Western blot, caspase-9 expression; type: cell-based, human; conditions: HeLa, 30 μg/mL, 12, 24, and 48 h
Experimental: (§1) HeLa cells (1.5 × 10^6 cells/well) were seeded in six-well plates and cultured in MEM supplemented with 10% FBS for 24 h. Subsequently, the cells were treated with the indicated amounts of Q3G or DMSO as a vehicle control for 12–48 h. Following this, the cells were collected, and total lysates from treated cells were prepared in RIPA buffer for 15 min. Protein concentration was determined using a Bio-Rad protein assay kit with BSA [63]. […] Membranes were treated with PBS containing 0.05% Tween 20 and 5% nonfat dry milk to block nonspecific binding at 15–25 °C and were incubated overnight at 4 °C with the following specific primary antibodies: caspase-9/-3, Bax, Bcl-2, Bid, CDK2, and MuD. β-Actin was used as an invariant control for equal loading of total proteins. After incubation with the primary antibody, the membranes were incubated with the appropriate secondary antibodies conjugated to horseradish peroxidase. Finally, immunoreactive bands were visualized using an enhanced chemiluminescence substrate (Bio-Rad).

CDK2 = assay: Western blot, CDK2 expression; type: cell-based, human; conditions: HeLa, 30 μg/mL, 12-48 h
Experimental: as §1

HeLa cells [1] = assay: Intracellular ROS production (DCFDA fluorescence); type: cell-based, human; conditions: 30 μg/mL
Experimental: Cellular ROS production was analyzed as previously described with minor modifications to the original methodology. Briefly, cells were seeded at a density of 1.5 × 10^4/well in a black, clear bottom 96-well plate. The following day, cells were treated with […] (30 μg/mL) or DMSO as a vehicle control for 12-48 h. Forty-five minutes prior to completion of the treatment, 100 μL of 2× H2DCFDA dilution was overlayed in each well and incubated in 5% CO2 with DCFDA as well as the compounds for 30 min at 37 °C. The fluorescence in each well was assessed on a microplate reader at the end point in the presence of compounds and DCFDA with Ex/Em = 485/535 nm wavelengths.

Bax = assay: Western blot, Bax expression; type: cell-based, human; conditions: HeLa, 30 μg/mL, 12, 24, and 48 h
Experimental: as §1

Bcl-2 = assay: Western blot, Bcl-2 expression; type: cell-based, human; conditions: HeLa, 30 μg/mL, 12, 24, and 48 h
Experimental: as §1

HeLa cells [2] = assay: Cell cycle analysis by PI flow cytometry; type: cell-based, human; conditions: 30 μg/mL, listed as Q3G
Experimental: Cell cycle analysis was performed in HeLa cells as previously described. Cells were seeded into six-well plates at a density of 2 × 10^5 cells per well and treated with […] (30 μg/mL) for 12-48 h. Thereafter, the cells were harvested, washed with PBS, and fixed at 4 °C for 1 h in a 70% PBS-ethanol solution. Cells were subsequently washed twice with PBS, and 50 μL of a 100 μg/mL stock of DNase-free RNase was added to ensure that only DNA, not RNA, was stained. Cell pellets were stained with a fluorescent probe PI (50 μg/mL) and incubated at RT for 30 min, and then analyzed using a NovoCyte 1000 benchtop flow cytometer (ACEA Biosciences, San Diego, CA, USA).

MuD = assay: Western blot, MuD expression; type: cell-based, human; conditions: HeLa, 30 μg/mL, 12, 24, and 48 h
Experimental: as §1

WST cell viability assay = type: cell-based, human; conditions: human, HeLa cells, HeLa
Experimental: (§2) The viability of HeLa cells treated with […] (0-100 μg/mL, concentrations) was examined for 24-72 h using a colorimetric WST assay. Briefly, HeLa cells were cultured in a clear-bottom 96-well plate at a density of 9 × 10^3 cells/well in MEM supplemented with 10% FBS and 1% penicillin-streptomycin in a 5% CO2 incubator and incubated for 24 h at 37 °C. The […] stock solution was prepared in DMSO and stored at -20 °C. Subsequently, the cells were exposed to various concentrations of […] (0-100 μg/mL) over a period of 24-72 h. The cell proliferation reagent WST-1 solution (10 μL/well) was added to the plates, followed by incubation in 5% CO2 for 2 h at 37 °C in the dark. Thereafter, the plates were shaken thoroughly for 1 min on a shaker at RT, and the absorbance of the reporter substrate was measured at 450 nm and 600 nm (reference wavelength 650 nm) using a microplate reader coupled with the Gen5 software (BioTek, Winooski, VT, USA).

HeLa cells [3] = assay: WST cell viability assay; type: cell-based, human; conditions: for Cell Viability (%): HeLa, 40 μg/mL, listed as Q3G
Experimental: as §2

HeLa cells [4] = assay: Annexin V-FITC/PI apoptosis assay by flow cytometry; type: cell-based, human
Experimental: Annexin V-FITC/propidium iodide (PI) assay was performed as per the manufacturer's instructions (Sino Biological, Beijing, China). Briefly, HeLa cells (2 × 10^5 cells/well) in 6-well culture plates were treated with […] (30 μg/mL) or with DMSO as a vehicle control for 24 and 48 h. Subsequently, floating as well as adherent cells were collected and washed with PBS. The cells were centrifuged at 400× g for 5 min at RT and resuspended in binding buffer containing Annexin V-FITC, along with PI. In each experiment, 1 × 10^4 cells were analyzed for annexin V-FITC/PI staining after incubation for 20 min at RT in the dark.

[5] = mean ± SD, n = 3, read-out: Enzyme Inhibitory Effect IC50 COX-1 (converted)

Enzyme Inhibitory Effect IC50 LOX-5 (LOX-5): 7.96 ± 0.76 ^d μg/mL
IC50 (COX-1; [5]): 55.4 µM
IC50 (COX-2): 93.2 µM
Structure (SMILES): O=C(O)/C=C/c1ccc(O)cc1 [Coumaric acid]

IC50 (COX-1; [5]): 20.2 µM
IC50 (COX-2): 37.4 µM
Structure (SMILES): O=c1c(O)c(-c2ccc(O)c(O)c2)oc2cc(O)cc(O)c12 [Quercetin]

Enzyme Inhibitory Effect IC50 LOX-5 (LOX-5): 12.26 ± 0.91 ^g μg/mL
IC50 (COX-1; [5]): 113 µM
Structure (SMILES): O=C(O)/C=C/c1ccc(O)c(O)c1 [Caffeic acid]

Enzyme Inhibitory Effect IC50 LOX-5 (LOX-5): 9.98 ± 0.94 ^e μg/mL
IC50 (COX-1; [5]): 39.7 µM
IC50 (COX-2): 75.3 µM
Structure (SMILES): O=C(/C=C/c1ccc(O)c(O)c1)O[C@@H]1C[C@](O)(C(=O)O)C[C@@H](O)[C@H]1O [Chlorogenic acid]

Further lines, the compound ahead of its results:

Structure (SMILES): O=C(CCc1ccc(O)cc1)c1c(O)cc(O)cc1O[C@@H]1O[C@H](CO)[C@@H](O)[C@H](O)[C@H]1O [Phloridzin]
Enzyme Inhibitory Effect IC50 LOX-5 (LOX-5): 18.98 ± 0.85 ^i μg/mL
IC50 (COX-1; [5]): 65.6 µM
IC50 (COX-2): 83 µM

Structure (SMILES): Oc1cc(O)c2c(c1)O[C@H](c1ccc(O)c(O)c1)[C@H](O)C2 [Epicatechin]
Enzyme Inhibitory Effect IC50 LOX-5 (LOX-5): 10.09 ± 1.03 ^f μg/mL
IC50 (COX-1): 63 µM

Structure (SMILES): O=c1c(O[C@@H]2O[C@H](CO)[C@@H](O)[C@H](O)[C@H]2O)c(-c2ccc(O)c(O)c2)oc2cc(O)cc(O)c12 [Quercetin-3-glucoside, quercetin 3-β-D-glucoside]
expression of the initiator caspase, caspase-9 (caspase-9): reduced
protein expression of CDK2 (CDK2): decreasing
ROS level higher than the control group (HeLa cells [1]; 12 h): approximately 6 fold
ROS level higher than the control group (HeLa cells [1]; 24 h): ~12 fold
level of Bax (Bax): increase
level of anti-apoptotic protein Bcl-2 (Bcl-2): reduced
Enzyme Inhibitory Effect IC50 LOX-5 (LOX-5): 2.31 ± 0.32 ^b μg/mL
IC50 (COX-1): 7.8 µM
cells in S phase (HeLa cells [2]; 24 h): ~56%
cells in S phase (HeLa cells [2]; 48 h): ~63%
MuD expression (MuD): markedly reduced
viability at 48 h, 0.1 μg/mL (WST cell viability assay; 0.1 μg/mL, 48 h): 114.98 ± 0.05%
viability at 48 h, 1 μg/mL (WST cell viability assay; 1 μg/mL, 48 h): 103.3 ± 0.12%
viability at 48 h, 10 μg/mL (WST cell viability assay; 10 μg/mL, 48 h): 116.1 ± 0.01%
viability at 24 h, 40 μg/mL (WST cell viability assay; 40 μg/mL, 24 h): 83%
viability at 48 h, 40 μg/mL (WST cell viability assay; 40 μg/mL, 48 h): 36%
viability at 72 h, 40 μg/mL (WST cell viability assay; 40 μg/mL, 72 h): 18%
viability at 48 h, 50 μg/mL (WST cell viability assay; 50 μg/mL, 48 h): 29.6%
viability at 48 h, 100 μg/mL (WST cell viability assay; 100 μg/mL, 48 h): 41.81 ± 0.01%
concentrations with significant growth inhibition (HeLa cells [3]; HeLa cells, 48 h): higher than 10 µg/mL
Cell Viability (%) (HeLa cells [3]; 24 h): 83.30 ± 4.05%
Cell Viability (%) (HeLa cells [3]; 48 h): 36.27 ± 1.38%
Cell Viability (%) (HeLa cells [3]; 72 h): 17.97 ± 1.42%
cells in early apoptosis (HeLa cells [4]; 30 μg/mL, 48 h): Approximately 20%
cells in the late apoptosis phase (HeLa cells [4]; 30 μg/mL, 48 h): ~35%
difference in apoptosis (early and late phase) compared with the control cells (HeLa cells [4]; 24 h of treatment): No significant difference
increase in the number of apoptotic cells (Annexin V-positive cells) (HeLa cells [4]; after 48 h compared to after 24 h of treatment): 16–22%

Structure (SMILES): O=C(CCc1ccc(O)cc1)c1c(O)cc(O)cc1O [Phloretin]
Enzyme Inhibitory Effect IC50 LOX-5 (LOX-5): 16.86 ± 1.22 ^h μg/mL
IC50 (COX-1; [5]): 91.7 µM
IC50 (COX-2): 121 µM
